Experiments:
[1] = molecular target: Phosphatidylinositol 4,5-bisphosphate 3-kinase catalytic subunit alpha isoform (Homo sapiens, UniProt P42336); test: Inhibition of PI3Kalpha (unknown origin) using PIP2:PS as substrate preincubated for 1 hr followed by ATP and substate addition and measured after 1 hr by ADP-glo reagent based assay
[2] = molecular target: T1, Phosphatidylinositol 4,5-bisphosphate 3-kinase catalytic subunit delta isoform (Homo sapiens, UniProt O00329); test: Inhibition of PI3Kdelta (unknown origin) using PIP2:PS as substrate preincubated for 1 hr followed by ATP and substate addition and measured after 1 hr by ADP-glo reagent based assay
T1 sequence (O00329 whole entry): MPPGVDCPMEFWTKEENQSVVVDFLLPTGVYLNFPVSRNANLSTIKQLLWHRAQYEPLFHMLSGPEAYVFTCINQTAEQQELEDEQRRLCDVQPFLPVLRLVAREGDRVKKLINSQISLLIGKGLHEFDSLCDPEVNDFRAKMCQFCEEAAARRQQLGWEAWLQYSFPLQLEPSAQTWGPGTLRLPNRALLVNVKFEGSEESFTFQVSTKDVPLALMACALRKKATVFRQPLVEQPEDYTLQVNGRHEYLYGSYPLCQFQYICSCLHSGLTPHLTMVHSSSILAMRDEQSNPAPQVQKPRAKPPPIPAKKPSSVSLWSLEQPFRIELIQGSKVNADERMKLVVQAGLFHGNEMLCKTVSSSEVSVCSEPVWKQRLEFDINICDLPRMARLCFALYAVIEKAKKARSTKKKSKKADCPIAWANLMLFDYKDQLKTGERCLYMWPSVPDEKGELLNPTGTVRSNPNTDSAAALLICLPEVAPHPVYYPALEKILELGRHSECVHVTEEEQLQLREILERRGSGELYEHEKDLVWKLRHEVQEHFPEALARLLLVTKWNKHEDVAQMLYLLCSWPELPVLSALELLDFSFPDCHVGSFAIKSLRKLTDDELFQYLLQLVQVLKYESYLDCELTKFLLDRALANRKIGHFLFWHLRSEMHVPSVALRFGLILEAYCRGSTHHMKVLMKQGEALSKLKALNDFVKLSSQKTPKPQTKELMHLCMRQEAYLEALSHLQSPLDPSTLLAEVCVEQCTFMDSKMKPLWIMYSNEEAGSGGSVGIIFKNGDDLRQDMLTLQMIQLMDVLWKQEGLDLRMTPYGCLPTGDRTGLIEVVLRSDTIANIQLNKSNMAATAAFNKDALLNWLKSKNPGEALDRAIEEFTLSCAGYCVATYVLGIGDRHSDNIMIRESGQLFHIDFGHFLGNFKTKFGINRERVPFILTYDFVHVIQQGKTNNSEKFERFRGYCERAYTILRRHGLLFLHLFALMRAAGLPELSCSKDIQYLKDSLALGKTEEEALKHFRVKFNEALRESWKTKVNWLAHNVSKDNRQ

[3] = molecular target: Phosphatidylinositol 4,5-bisphosphate 3-kinase catalytic subunit beta isoform (Homo sapiens, UniProt P42338); test: Inhibition of PI3Kbeta (unknown origin) using PIP2:PS as substrate preincubated for 1 hr followed by ATP and substate addition and measured after 1 hr by ADP-glo reagent based assay
[4] = molecular target: Phosphatidylinositol 4,5-bisphosphate 3-kinase catalytic subunit gamma isoform (Homo sapiens, UniProt P48736); test: Inhibition of PI3Kgamma (unknown origin) using PIP2:PS as substrate preincubated for 1 hr followed by ATP and substate addition and measured after 1 hr by ADP-glo reagent based assay
Kasumi 1 = test: Antiproliferative activity against human Kasumi 1 cells assessed as cell growth inhibition incubated for 72 hrs by MTT assay; type: functional, cell-based; conditions: Kasumi 1, 72 h
T47D = test: Antiproliferative activity against human T47D cells expressing PIK3CA mutant assessed as cell growth inhibition incubated for 72 hrs by MTT assay; type: functional, cell-based
[5] = Half life in mouse at 5 mg/kg, po measured after 24 hrs by LC/MS/MS analysis; type: ADME, organism-based; conditions: in vivo
[6] = Half life in mouse at 1 mg/kg, iv measured after 24 hrs by LC/MS/MS analysis; type: ADME, organism-based; conditions: in vivo
[7] = Cmax in mouse at 5 mg/kg, po measured after 24 hrs by LC/MS/MS analysis; type: ADME, organism-based; set-up: time 24 hrs, dose 5 mg/kg, route po; conditions: in vivo
[8] = Cmax in mouse at 1 mg/kg, iv measured after 24 hrs by LC/MS/MS analysis; type: ADME, organism-based; set-up: time 24 hrs, dose 1 mg/kg, route iv; conditions: in vivo
[9] = AUC(0 to t) in mouse at 5 mg/kg, po measured after 24 hrs by LC/MS/MS analysis; type: ADME, organism-based; set-up: dose 5 mg/kg, time 24 hrs, route po; conditions: in vivo
[10] = AUC(0 to t) in mouse at 1 mg/kg, iv measured after 24 hrs by LC/MS/MS analysis; type: ADME, organism-based; set-up: dose 1 mg/kg, time 24 hrs, route iv; conditions: in vivo
[11] = Volume of distribution in mouse at 5 mg/kg, po measured after 24 hrs by LC/MS/MS analysis; type: ADME, organism-based; conditions: in vivo
[12] = Volume of distribution in mouse at 1 mg/kg, iv measured after 24 hrs by LC/MS/MS analysis; type: ADME, organism-based; conditions: in vivo
[13] = Clearance in mouse at 5 mg/kg, po measured after 24 hrs by LC/MS/MS analysis; type: ADME, organism-based; conditions: in vivo
[14] = Clearance in mouse at 1 mg/kg, iv measured after 24 hrs by LC/MS/MS analysis; type: ADME, organism-based; conditions: in vivo
[15] = Oral bioavailability in mouse at 5 mg/kg measured after 24 hrs by LC/MS/MS analysis; type: ADME, organism-based; conditions: in vivo
[16] = Inhibition of PI3K/AKT/mTOR signaling pathway in human T47D cells assessed as reduction in Akt phosphorylation at S473 residue preincubated for 1 hr followed by recombinant human insulin-like growth factor 1 stimulation by Western blot analysis; type: cell-based; conditions: dose 0.01-10 µM

Sequence of Phosphatidylinositol 4,5-bisphosphate 3-kinase catalytic subunit beta isoform (P42338 whole entry, canonical isoform): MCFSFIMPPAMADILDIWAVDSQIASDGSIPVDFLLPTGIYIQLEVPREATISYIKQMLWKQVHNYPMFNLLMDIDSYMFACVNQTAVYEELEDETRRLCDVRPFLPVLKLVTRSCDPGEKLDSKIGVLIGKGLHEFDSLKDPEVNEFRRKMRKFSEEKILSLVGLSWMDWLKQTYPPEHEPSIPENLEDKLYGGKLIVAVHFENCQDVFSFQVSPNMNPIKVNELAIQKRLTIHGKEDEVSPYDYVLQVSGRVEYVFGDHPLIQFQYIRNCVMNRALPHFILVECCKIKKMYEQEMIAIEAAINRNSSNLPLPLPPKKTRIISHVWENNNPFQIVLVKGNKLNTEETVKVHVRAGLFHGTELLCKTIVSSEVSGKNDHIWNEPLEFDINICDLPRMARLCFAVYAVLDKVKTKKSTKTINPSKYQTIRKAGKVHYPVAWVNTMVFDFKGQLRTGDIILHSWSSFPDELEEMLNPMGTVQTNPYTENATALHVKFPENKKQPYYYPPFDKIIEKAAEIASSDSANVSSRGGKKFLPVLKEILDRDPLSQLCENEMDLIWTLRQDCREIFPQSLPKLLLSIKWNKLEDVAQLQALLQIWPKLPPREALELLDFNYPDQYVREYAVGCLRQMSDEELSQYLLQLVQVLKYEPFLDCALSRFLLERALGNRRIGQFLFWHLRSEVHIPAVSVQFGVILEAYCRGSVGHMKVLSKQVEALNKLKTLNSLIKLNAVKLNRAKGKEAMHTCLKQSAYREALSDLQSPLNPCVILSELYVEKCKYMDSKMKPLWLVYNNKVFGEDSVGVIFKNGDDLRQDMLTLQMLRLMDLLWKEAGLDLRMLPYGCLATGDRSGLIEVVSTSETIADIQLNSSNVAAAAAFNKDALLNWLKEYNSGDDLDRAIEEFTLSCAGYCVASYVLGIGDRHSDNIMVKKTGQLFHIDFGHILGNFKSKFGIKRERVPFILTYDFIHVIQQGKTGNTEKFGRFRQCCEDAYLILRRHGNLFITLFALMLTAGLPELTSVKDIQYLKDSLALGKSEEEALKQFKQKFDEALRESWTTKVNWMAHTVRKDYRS
Sequence of Phosphatidylinositol 4,5-bisphosphate 3-kinase catalytic subunit gamma isoform (P48736 whole entry, canonical isoform): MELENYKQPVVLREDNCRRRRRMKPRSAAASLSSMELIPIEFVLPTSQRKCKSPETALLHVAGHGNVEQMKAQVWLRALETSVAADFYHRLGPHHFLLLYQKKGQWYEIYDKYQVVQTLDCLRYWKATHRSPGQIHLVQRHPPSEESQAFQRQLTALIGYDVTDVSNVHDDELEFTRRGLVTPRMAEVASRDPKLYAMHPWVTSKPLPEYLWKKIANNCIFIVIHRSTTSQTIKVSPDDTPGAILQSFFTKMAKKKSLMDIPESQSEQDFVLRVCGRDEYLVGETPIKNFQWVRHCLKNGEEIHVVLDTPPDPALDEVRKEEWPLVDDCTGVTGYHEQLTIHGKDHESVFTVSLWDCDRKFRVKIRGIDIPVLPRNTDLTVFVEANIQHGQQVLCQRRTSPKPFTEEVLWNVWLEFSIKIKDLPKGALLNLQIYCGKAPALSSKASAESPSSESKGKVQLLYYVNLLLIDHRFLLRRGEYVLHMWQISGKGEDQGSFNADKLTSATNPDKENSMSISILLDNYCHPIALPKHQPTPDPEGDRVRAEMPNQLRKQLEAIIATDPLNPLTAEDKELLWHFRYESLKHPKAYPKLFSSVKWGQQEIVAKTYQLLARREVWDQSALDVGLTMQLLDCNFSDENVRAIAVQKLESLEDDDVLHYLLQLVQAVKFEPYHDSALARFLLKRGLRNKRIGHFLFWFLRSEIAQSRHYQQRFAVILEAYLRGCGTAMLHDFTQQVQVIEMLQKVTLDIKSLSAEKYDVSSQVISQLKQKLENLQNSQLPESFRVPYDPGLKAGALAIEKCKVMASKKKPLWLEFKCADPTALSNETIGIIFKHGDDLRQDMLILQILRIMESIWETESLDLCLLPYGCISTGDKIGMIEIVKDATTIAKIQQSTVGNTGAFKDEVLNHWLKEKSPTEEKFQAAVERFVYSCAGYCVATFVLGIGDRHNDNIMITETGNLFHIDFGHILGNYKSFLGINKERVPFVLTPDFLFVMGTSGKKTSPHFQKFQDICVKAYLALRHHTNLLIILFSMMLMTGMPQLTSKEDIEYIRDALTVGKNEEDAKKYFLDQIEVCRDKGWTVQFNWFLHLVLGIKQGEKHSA
Sequence of Phosphatidylinositol 4,5-bisphosphate 3-kinase catalytic subunit alpha isoform (P42336 whole entry, canonical isoform): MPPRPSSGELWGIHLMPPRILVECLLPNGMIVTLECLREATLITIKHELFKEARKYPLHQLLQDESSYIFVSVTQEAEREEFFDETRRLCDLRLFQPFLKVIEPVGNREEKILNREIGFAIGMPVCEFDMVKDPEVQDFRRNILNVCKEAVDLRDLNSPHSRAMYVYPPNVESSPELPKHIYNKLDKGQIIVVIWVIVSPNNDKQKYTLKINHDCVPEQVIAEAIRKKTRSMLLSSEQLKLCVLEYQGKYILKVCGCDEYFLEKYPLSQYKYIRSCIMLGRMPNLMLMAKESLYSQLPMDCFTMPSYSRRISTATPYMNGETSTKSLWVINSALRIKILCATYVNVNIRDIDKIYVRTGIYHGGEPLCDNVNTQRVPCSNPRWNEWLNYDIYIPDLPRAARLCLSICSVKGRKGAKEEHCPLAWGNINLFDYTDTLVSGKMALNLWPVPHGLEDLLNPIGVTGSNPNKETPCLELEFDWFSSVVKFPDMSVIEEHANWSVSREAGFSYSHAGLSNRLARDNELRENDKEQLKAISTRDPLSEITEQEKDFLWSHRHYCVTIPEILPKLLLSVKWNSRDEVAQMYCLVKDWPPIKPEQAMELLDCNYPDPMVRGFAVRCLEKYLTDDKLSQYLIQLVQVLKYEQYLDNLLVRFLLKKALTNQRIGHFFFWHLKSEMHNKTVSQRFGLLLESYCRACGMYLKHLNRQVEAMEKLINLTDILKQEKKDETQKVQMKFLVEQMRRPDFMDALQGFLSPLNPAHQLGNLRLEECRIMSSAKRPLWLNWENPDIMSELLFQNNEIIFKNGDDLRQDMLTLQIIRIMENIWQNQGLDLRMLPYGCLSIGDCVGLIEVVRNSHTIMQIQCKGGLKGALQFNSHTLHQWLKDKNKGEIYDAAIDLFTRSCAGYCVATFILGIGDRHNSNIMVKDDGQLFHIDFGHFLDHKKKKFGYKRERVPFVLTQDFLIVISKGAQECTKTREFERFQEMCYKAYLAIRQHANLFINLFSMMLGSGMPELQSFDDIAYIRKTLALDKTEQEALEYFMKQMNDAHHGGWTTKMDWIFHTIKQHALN

| SMILES | IC50 [1] | other results |
| --- | --- | --- |
| CCn1c(=O)c2ccnn2c2ccc(C(=O)N3CCN(C)CC3)cc21 | > 20 µM |  |
| CNC(=O)c1ccc2c(c1)n(CCCN(C)C1CCCCC1)c(=O)c1ccnn12 | 11 µM |  |
| CCn1c(=O)c2ccnn2c2cc(N)c(C(=O)NCc3cncnc3)cc21 | 0.24 µM | IC50 [2]: 4.1 µM; IC50 [3]: > 10 µM; IC50 [4]: 0.83 µM; IC50 (Kasumi 1): 1.64 µM; IC50 (T47D): 1.82 µM; half-life [5]: 4.97 h; half-life [6]: 2.52 h; Cmax [7]: 863 ng/mL; Cmax [8]: 567 ng/mL; AUC(0-t) at 24 h [9]: 3290 ng·h/mL; AUC(0-t) at 24 h [10]: 717 ng·h/mL; Vd [11]: 6.36 L/kg; Vd [12]: 3.13 L/kg; CL/F [13]: 15.7 mL/min/kg; clearance [14]: 20.5 mL/min/kg; bioavailability [15]: 91.8%; inhibition [16]: Dose-Dependent Effect |
| O=C(NCc1cccnc1)c1ccc2c(c1)n(Cc1ccc(C(F)(F)F)cc1)c(=O)c1ccnn12 | > 20 µM |  |
| CCNC(=O)c1ccc2c(c1)n(Cc1ccccc1)c(=O)c1ccnn12 | 3.61 µM |  |
| CCn1c(=O)c2cccn2c2ccc(C(=O)NCc3cccnc3)cc21 | > 20 µM |  |
| O=C(NCCN1CCOCC1)c1ccc2c(c1)n(Cc1ccc(F)cc1)c(=O)c1ccnn12 | 9.62 µM |  |
| CCn1c(=O)c2ccnn2c2ccc(C(=O)NCc3cncc(C)c3)cc21 | 2.65 µM |  |
| CCCCn1c(=O)c2ccnn2c2ccc(C(=O)NCc3cccnc3)cc21 | 2 µM |  |
| CCn1c(=O)c2ccnn2c2cc(NC)c(C(=O)NCc3cccnc3)cc21 | > 20 µM | IC50 [2]: > 20 µM; IC50 [3]: 4.89 µM; IC50 [4]: > 20 µM |
| CCNC(=O)c1ccc2c(c1)n(CCCN(C)C)c(=O)c1ccnn12 | 4.26 µM |  |
| CCn1c(=O)c2cc(C(C)C)nn2c2ccc(C(=O)NCc3cccnc3)cc21 | > 20 µM |  |
| CCn1c(=O)c2ccnn2c2ccc(C(=O)NCc3ccc(C)nc3)cc21 | 3.62 µM |  |
| CCn1c(=O)c2cc(C)nn2c2ccc(C(=O)NCc3cccnc3)cc21 | 11.4 µM |  |
| CN1CCC(N2CCN(C(=O)c3ccc4c(c3)[nH]c(=O)c3ccnn34)CC2)CC1 | > 20 µM |  |
| CCn1c(=O)c2ccnn2c2ccc(C(=O)N3CCN(c4ccccc4)CC3)cc21 | > 20 µM |  |
| CCN1C(=O)N2CC(C)(C)CN=C2c2ccc(C(=O)NCc3cccnc3)cc21 | > 20 µM |  |

| SMILES | IC50 [1] | other results |
| --- | --- | --- |
| CC(C)(C)c1ccc(Cn2c(=O)c3ccnn3c3ccc(C(=O)NCc4cccnc4)cc32)cc1 | > 20 µM |  |
| CCNC(=O)c1ccc2c(c1)n(CCOC)c(=O)c1ccnn12 | 6.43 µM |  |
| O=C(NCc1cccnc1)c1ccc2c(c1)n(Cc1ccc(OC(F)(F)F)cc1)c(=O)c1ccnn12 | > 20 µM |  |
| CCn1c(=O)c2ccnn2c2cc(NC(C)=O)c(C(=O)NCc3cncnc3)cc21 | > 20 µM | IC50 [2]: > 20 µM; IC50 [3]: > 20 µM; IC50 [4]: > 20 µM |
| Cc1nc(NC(=O)N2CCC[C@H]2C(N)=O)sc1-c1ccnc(C(C)(C)C(F)(F)F)c1 [ALPELISIB] |  | IC50 (Kasumi 1): 0.44 µM; IC50 (T47D): 0.1 µM |
| CCn1c(=O)c2ccnn2c2cc(N(C)C)c(C(=O)NCc3cccnc3)cc21 | > 20 µM | IC50 [2]: > 20 µM; IC50 [3]: 15 µM; IC50 [4]: > 20 µM |
| CCn1c(=O)c2ccnn2c2ccc(C(=O)NCCc3cccnc3)cc21 | 13.9 µM |  |
| CCn1c(=O)c2ccnn2c2ccc(C(=O)NCc3cncnc3)cc21 | 1.59 µM |  |
| CCNC(=O)c1ccc2c(c1)n(CC)c(=O)c1ccnn12 | 9.3 µM |  |
| CCN1C(=O)N2CCCN=C2c2ccc(C(=O)NCc3cccnc3)cc21 | > 20 µM |  |
| CCn1c(=O)c2ccnn2c2ccc(C(=O)NCc3cccnc3C)cc21 | 4.51 µM |  |
| O=C(c1ccc2c(c1)[nH]c(=O)c1ccnn12)N1CCN(C2CCCC2)CC1 | > 20 µM |  |
| O=C(NCCN1CCOCC1)c1ccc2c(c1)n(Cc1ccccc1)c(=O)c1ccnn12 | 10.3 µM |  |
| CCn1c(=O)c2ccnn2c2ccc(C(=O)NCc3ccccn3)cc21 | 2.86 µM |  |
| CCN1C(=O)[C@H]2CCCN2c2ccc(C(=O)NCc3cccnc3)cc21 | > 20 µM |  |
| CCn1c(=O)c2cnc(C)n2c2ccc(C(=O)NCc3cccnc3)cc21 | 3.63 µM |  |
| CCn1c(=O)c2ccnn2c2ccc(C(=O)NCc3cnn(C)c3)cc21 | 5.47 µM |  |

Now from value to compound, other results behind:

| IC50 [1] | SMILES | other results |
| --- | --- | --- |
| 2.86 µM | CCn1c(=O)c2ccnn2c2ccc(C(=O)NCc3ccncc3)cc21 |  |
| 3.52 µM | CCn1c(=O)c2ccnn2c2ccc(C(=O)NCc3cnccc3C)cc21 |  |
| 2.65 µM | O=C(NCc1cccnc1)c1ccc2c(c1)n(CC1CC1)c(=O)c1ccnn12 |  |
| > 20 µM | CCn1c(=O)c2nccn2c2ccc(C(=O)NCc3cccnc3)cc21 |  |
| > 20 µM | CCN1C(=O)C2CCCCN2c2ccc(C(=O)NCc3cccnc3)cc21 (centres undefined) |  |
| 12.3 µM | Cn1c(=O)c2ccnn2c2ccc(C(=O)NCCN3CCOCC3)cc21 |  |
| > 20 µM | CCN1C(=O)[C@@H]2CCCN2c2ccc(C(=O)NCc3cccnc3)cc21 |  |
| 10.9 µM | CCn1c(=O)c2ccnn2c2ccc(C(=O)NCCN3CCOCC3)cc21 |  |
| 4.76 µM | CCn1c(=O)c2ccnn2c2ccc(C(=O)NCc3cnccn3)cc21 |  |
| 4.18 µM | CCn1c(=O)c2ccnn2c2ccc(C(=O)NCCCN3CCOCC3)cc21 |  |
| 0.87 µM | CCn1c(=O)c2ccnn2c2cc(N)c(C(=O)NCc3cccnc3)cc21 | IC50 [2]: 5.74 µM; IC50 [3]: 0.72 µM; IC50 [4]: 1.4 µM; IC50 (Kasumi 1): 4.38 µM; Cmax [7]: < 50 ng/mL; Cmax [8]: < 50 ng/mL; AUC(0-t) at 24 h [9]: < 100 ng·h/mL; AUC(0-t) at 24 h [10]: < 100 ng·h/mL |
| > 20 µM | CS(=O)(=O)c1ccc(Cn2c(=O)c3ccnn3c3ccc(C(=O)NCc4cccnc4)cc32)cc1 |  |
| > 20 µM | CCN1C(=O)N2CCN=C2c2ccc(C(=O)NCc3cccnc3)cc21 |  |
| 5.25 µM | CCNC(=O)c1ccc2c(c1)n(CCN1CCCCC1)c(=O)c1ccnn12 |  |
| 3.52 µM | CCn1c(=O)c2ccnn2c2ccc(C(=O)NCc3cccnc3)cc21 |  |

From ChEMBL document CHEMBL5257112, “Discovery of 4-oxo-4,5-dihydropyrazolo[1,5-a]quinoxaline-7-carboxamide derivatives as PI3Kα inhibitors via virtual screening and docking-based structure optimization” (Bioorg Med Chem, 2023)
